Laboratory results from patent publication US12083157B2, “Use of polylysine dendrimers in the prevention and management of acne-prone skin and acneic skin” (Lucas Meyer Cosmetics, priority 2019, dated 2024).
“And” between values parts separate entries of the source, which are not always exact repeats. Equal entries are not always repeated.

Experiments:
IL-8 = test: IL1-α-induced IL-8 production in normal human dermal fibroblasts (ELISA); assay type: cell-based
Method: There is evidence that C. acnes is involved in invoking an inflammatory response. […] Therefore, the effect of the G2 dendrimer on inflammation in normal human dermis fibroblasts (NHDF) was assessed. NHDF were isolated from human dermis and maintained in DMEM containing 10% fetal calf serum, 1% antibiotics (penicillin/streptomycin) and 1% L-glutamine at 37° C. under 5% CO2 and 95% humidity.
IL-8 mediates inflammatory reactions in the skin through the recruitment of neutrophils and other immune cells to invade injured or inflamed tissue. IL-8 secretion is inducible in cultured human dermal fibroblasts following activation with the pro-inflammatory cytokine IL-la (Larsen, et al. (1989) Immunology 68(1):31-6). Accordingly, non-confluent NHDF cells were treated with IL1-α (0.1 ng/mL), as an inducer of IL-8 production, in the presence or absence of G2 dendrimer (10^−9M, 10^−8M, 10^−7M or 10^−6 M) or hydrocortisone (0.05 μg/mL) as the positive anti-inflammatory control. IL-8 release from fibroblasts was determined by enzyme-linked immunosorbent assay (ELISA).

[1] = tested on: C. acnes acneic strain RT5 (phylotype IA1); test: Membrane fluidity of C. acnes strain RT5; assay type: cell-based, Cutibacterium acnes; conditions: 6·10^−6M, 72 h of incubation
[2] = tested on: stratum corneum of human skin explants; test: Keratolytic effect in human skin explants exposed to C. acnes; assay type: cell-based; conditions: explants at day 8
Method: (§1) Skin Treatment. Fifteen human skin specimens were obtained from patients undergoing plastic surgery (Caucasian women, 26 years old). Skin explants were maintained in culture for 8 days. A 1-hour treatment with G2 dendrimer (2 and 5 ppm) was concomitant with application of freeze-dried C. acnes (30 μL) at days 0, 1, 4 and 6 (FIG. 2). At day 8, explants were fixed and embedded in paraffin. Thick sections of 5 μm were stained with Masson's Trichrome stain or an anti-TLR2 antibody.
Evaluation of Keratolytic Effect. The general morphology and in particular stratum corneum of the explants were analyzed. Images were taken with a Leica Orthoplan microscope equipped with a digital camera (tri-CCD) driven by the acquisition and archiving software Leica IM1000.

[3] = tested on: C. acnes non-acneic strain RT6 (phylotype II); test: Membrane fluidity of C. acnes strain RT6; assay type: cell-based, Cutibacterium acnes; conditions: 6·10^−6 M, 72 h of incubation
Method: The impact of G2 dendrimer on the membrane fluidity of three bacterial strains of Cutibacterium acnes was tested. Two of the tested strains of C. acnes are “acneic” strains belonging to phylotype IA1 (RT4 and RT5) while the last one is a non-acneic strain (RT6) belonging to phylotype II. Several colonies of RT4, RT5 and RT6 (C. acnes strains) were scrapped and put in reinforced clostridial medium (RMC medium). The tubes were vortexed few seconds and homogenized before to be completely filled out with RMC in order to create anaerobic state. The tubes were then incubated at 37° C. for at least 48 h.
Bacterial cultures were collected and the OD was taken at 580 nm. After inoculation, the bacteria were sending in microplate and treated or not with G2 dendrimer. After 2 hours in anaerobic chamber, the plate was transferred in microplate reader for 72 h (OD 580 nm with measurement every 30 min). Then, the generation time of the bacteria was analyzed for each C. acnes strains. The G2 Dendrimer was tested at the following concentrations: 6·10^−6M, and 6·10^−7M.

IL1-α = IL1-α quantification in culture media of human skin explants (ELISA); assay type: cell-based
Method: as §1
Quantification of IL1-α Cytokine. The concentration of IL1-α in the culture media was determined using an ELISA assay kit (Cayman, Ann Arbor, MI). The absorbances were measured using a microplate reader Tecan Infinite M200 Pro, combined with Magellan's software.

[4] = tested on: adhesion of tritium-labeled C. acnes IP 53117T to keratinocytes (NCTC 2544); test: C. acnes adhesion to keratinocytes, Method 1 (concomitant, 2 hours); assay type: cell-based, Cutibacterium acnes; conditions: after 2 hours, vs absence of G2 dendrimer
Method: (§2) Keratinocytes were isolated from the human epithelial cell line NCTC 2544 (Neufahrt, et al. (1978) Arch. Dermaol. Res. 256(3):255-60). Culture were maintained with Dulbecco's modified Eagle's medium (DMEM) containing 10% fetal calf serum, 1% antibiotics (penicillin/streptomycin), and 1% L-glutamine at 37° C. under 5% CO2 and 95% humidity.
To monitor bacterial adhesion, adenine of the IP 53117T bacterial strain (belonging to acneic phylotype IA1) was labeled with tritium and bacterial adhesion to the surface of keratinocytes was determined by counting the radioactivity. • Method 1. […] After incubation for 2 hours (37° C., 5% CO2), cells were washed with phosphate-buffered saline (PBS) to remove non-adherent bacteria. • Method 2. The keratinocytes were pretreated for 24 hours with the G2 dendrimer. Labeled bacteria (2×10^8 microorganisms/mL) was then added to the cell monolayer for 2 hours without prior removal of the G2 dendrimer.

[5] = tested on: Cutibacterium acnes non-acneic strain ribotype 6 (RT6) HL110PA3/HM-554; test: Biofilm formation on glass slide, strain RT6; assay type: cell-based; conditions: 72 h biofilm
Method: (§3) The Cutibacterium acnes acneic strain ribotype 5 (RT5) HL043PA2/HM-514 and the Cutibacterium acnes non-acneic strain ribotype 6 (RT6) HL110PA3/HM-554 were obtained from BEI Resources American Type Culture Collection (Virginia, United States). These two strains belong to the phylotypes IA1 and II, respectively (McDowell, 2017). Bacteria, stored at −80° C., were initially plated on brain-heart infusion (BHI, BD) agar plates for RT6 strain and on reinforced clostridial medium (RCM) agar plates for RT5 strain, and were incubated under anoxic conditions at 37° C. using a BD GasPack™ System. Colonies were transferred into sterile conical 15-mL tubes (Falcon) containing 12 ml of RCM and after vortexing for homogenization, the falcon tube is completely filled with RCM medium and incubated for 72 h at 37° C. […]
(§4) After 72 h (biofilm formation), the RCM medium was carefully removed in each well in order to remove planktonic cells. […] Syto 9 was excited at 488 nm and fluorescence emission was detected from 500 to 550 nm. […] Quantitative analyses of images stacks were performed using the COMSTAT software (see Worldwide Website: imageanalysis.dk/) (Heydorn et al., 2000). Maximal and average biofilm thickness (μm) and their biomass volume (μm^3/μm^2) were determined. […]

[6] = tested on: C. acnes strain IP 53117T; test: Inhibition of C. acnes growth in culture (MIC, 96-well plates); assay type: cell-based, Cutibacterium acnes; conditions: C. acnes strain IP 53117T (phylotype IA1); 24 to 48 hours at 37° C.
Method: The effectiveness of G2 dendrimer for inhibiting the growth of C. acnes in culture was assessed. G2 dendrimer was used at a final concentration ranging between 10^−2 M and 10^−5M. Experiments were performed using C. acnes strain IP 53117T (see FR2844715 A1), a strain known to cause acne. This strain belongs to a ribotype 1 (RT1) from phylotype 1A1 and is thus an acneic strain.
Bacteria (10^8 CFU/ml) were inoculated in 96-well plates containing a range of G2 dendrimer concentrations.

TLR2 = TLR2 immunostaining in human skin explants challenged with C. acnes; assay type: cell-based; conditions: topical application at 2 and 5 ppm
Method: as §1
Immunostaining of TLR2 TLR2 is known to mediate the inflammatory response of skin to acne (Kim, et al. (2002) 1 Immunol. 169(3):1535-41; McInturff & Kim (2005) Semin. Cutan. Med. Surg. 24(2):73-8). Accordingly, TLR2 protein in frozen sections was assessed with an anti-TLR2 (clone TL2.1; Santa Cruz). Sections were incubated with a 1:25 dilution of the anti-TLR2 antibody overnight at 4° C. and antibody binding was subsequently detected with biotin/streptavidin-FITC conjugate. Nuclei were stained with propidium iodide.

[7] = tested on: adhesion of tritium-labeled C. acnes IP 53117T to keratinocytes (NCTC 2544); test: C. acnes adhesion to keratinocytes, Method 2 (24-hour pretreatment); assay type: cell-based, Cutibacterium acnes
Method: as §2
To monitor bacterial adhesion, adenine of the IP 53117T bacterial strain (belonging to acneic phylotype IA1) was labeled with tritium and bacterial adhesion to the surface of keratinocytes was determined by counting the radioactivity. • Method 1. Labeled bacteria (2×10^8 microorganisms/mL) were combined with varying amounts of G2 dendrimer (final concentration between 10^−5M and 6.25×10^−6 M) and deposited on the surface of a monolayer of keratinocytes. After incubation for 2 hours (37° C., 5% CO2), cells were washed with phosphate-buffered saline (PBS) to remove non-adherent bacteria. • Method 2. The keratinocytes were pretreated for 24 hours with the G2 dendrimer. Labeled bacteria (2×10^8 microorganisms/mL) was then added to the cell monolayer for 2 hours without prior removal of the G2 dendrimer.

[8] = tested on: C. acnes acneic strain RT4 (phylotype IA1); test: Membrane fluidity of C. acnes strain RT4; assay type: cell-based, Cutibacterium acnes; conditions: 6·10^−6M, 72 h of incubation
[9] = tested on: Cutibacterium acnes acneic strain ribotype 5 (RT5) HL043PA2/HM-514; test: Biofilm formation on glass slide, strain RT5; assay type: cell-based; conditions: 72 h biofilm
Method: as §3, §4

[10] = Anti-inflammatory effect, comparison with linear polylysine
C. acnes = test: Inhibition of C. acnes proliferation, comparison with linear polylysine; assay type: cell-based, Cutibacterium acnes

## C[C@]12CCC(=O)C=C1CC[C@@H]1[C@@H]2[C@@H](O)C[C@@]2(C)[C@H]1CC[C@]2(O)C(=O)CO [hydrocortisone, reference compound]
IL-8; NHDF, IL1-α 0.1 ng/mL, hydrocortisone 0.05 μg/mL
  decrease of IL-8 production: 83%

## poly(L-lysine) G2 [G2 dendrimer]
[1]
  membrane rigidity (membrane fluidity) vs control: significantly decreased
[2]; 2 ppm topical
  keratolytic effect (morphology of stratum corneum): moderate separation of the upper layers of the stratum corneum
[2]; 5 ppm topical
  keratolytic effect (morphology of stratum corneum): lower detachment
[3]
  membrane rigidity (membrane fluidity) vs control: does not exhibit any significant effect
IL1-α; 2 ppm, day 1
  decrease in IL1-α production compared to treatment with C. acnes: 49%
IL1-α; 2 ppm, day 4
  decrease in IL1-α production compared to treatment with C. acnes: 28%
IL1-α; 5 ppm, day 1
  decrease in IL1-α production compared to treatment with C. acnes: 42%
IL1-α; 5 ppm, day 4
  decrease in IL1-α production compared to treatment with C. acnes: 27%
[4]; 2.5×10^−7 M
  inhibition of adhesion of C. acnes on keratinocyte surfaces: 29%
[4]; 5×10^−6 M
  inhibition of adhesion of C. acnes on keratinocyte surfaces: 40%
[4]; 10^−5 M
  inhibition of adhesion of C. acnes on keratinocyte surfaces: 50%
[5]
  biomass density in the biofilm: no effect
  change in thickness of the biofilm: −32%
IL-8; dermal fibroblasts in vitro
  management of IL-8 production following IL1-α stimulation, acetate vs chloride or carbonate counter-anions: more effective
[6]
  MIC (minimum inhibitory concentration): 10-20 ppm and 20 ppm
TLR2
  TLR2 overexpression induced by C. acnes: complete inhibition
[7]; 2.5×10^−6 M
  inhibition of adhesion of C. acnes on keratinocyte surfaces: 35%
[7]; 5×10^−6 M
  inhibition of adhesion of C. acnes on keratinocyte surfaces: 51%
[7]; 10^−5M
  inhibition of adhesion of C. acnes on keratinocyte surfaces: 50%
[8]
  membrane rigidity (membrane fluidity) vs control: significantly decreased
[9]
  change in biomass density in the biofilm: −50%
  change in thickness of the biofilm: −48%
[10]
  anti-inflammatory effect compared with linear polylysine: more effective than linear polylysine
C. acnes
  inhibition of C. acnes proliferation compared with linear polylysine: more effective than linear polylysine
